The values that follow come from PMC7926937, “Suramin Targets the Conserved Ligand-Binding Pocket of Human Raf1 Kinase Inhibitory Protein” (Molecules, 2021).

Positions count from the first letter of the chain named. Like-named read-outs stand apart in the source and are kept apart here.

Series [1] relates to hRKIP-mediated Ras/Raf1/MEK/ERK signal pathway. Briefly: ERK phosphorylation (Western blot) in hRKIP-transfected HEK293T cells. The class given is cell-based, human. Particulars: 160 µM suramin, 30 min before EGF stimulation, compared with no suramin treatment. Here is the method: (§1) Human HEK293T cells were used as control group. HEK293T cells were first transfected with the exogenous hRKIP gene (the hRKIP-treated group), then the hRKIP transfected cells were serum starved overnight (10 h) and then incubated with 160 μM suramin for 30 min before EGF stimulation (the hRKIP-suramin-treated group). The transfection process was performed as following: 4 μg of pcDNA3.0-hRKIP was mixed with 75 μL lipotap (Beyotime, China), and the mixture was incubated with HEK293T cell in the dulbecco’s modified eagle medium (DMEM) with 100 units/mL penicillin (Sagon, Shanghai, China), 100 μg/mL streptomycin (Sagon, Shanghai, China) and 10% fetal bovine serum (Hyclone, Logan, UT, USA) for 6 h. Then the lipotap-DNA mixture was removed, and the transfected cell was further cultured in fresh medium. For all the three groups, the cells were cultured in DMEM supplemented with serum and […] at 37 °C. At 70% confluency, 10 ng/mL EGF was used to stimulate the Ras/Raf/MEK/ERK signal pathway for 5 min. The reaction was stopped by phosphate-buffered saline. […]
(§2) Cellular assay data are presented as mean ± standard deviation (SD). […] Statistical significances were determined using Student’s t-test. p < 0.05 was considered statistically significant.

For series [2], the system named is HEK293T cell. Briefly: MTS experiments on HEK293T cells. The class given is cell-based. Particulars: Homo sapiens, HEK-293T.
Series [3] addresses T1, hRKIP (Homo sapiens, UniProt P30086).
T1 construct: made in house; host or cells: E. coli
Briefly: BLI assay of ligand binding to wild-type hRKIP. The protocol: (§3) Both unlabeled and ^15N-labeled hRKIP proteins were prepared as described previously. Eight hRKIP mutants (P74L, Y81A, S109A, P111L, P112L, K113A, W173A, and Y181A) were generated by site-directed mutagenesis using the vector of pReceiver-B01a-RKIP as the template and confirmed by DNA sequencing. All protein purifications were performed at 4 °C. Protein purities were verified by polyacrylamide gel electrophoresis, and protein concentrations were measured by NanoVue (GE Heathcare Co, Boston, MA, USA).
(§4) The interaction between hRKIP and suramin was detected by using the ForteBio Octet Red system (ForteBio, Inc, San Francisco, CA, USA). The wild-type His-tagged hRKIP protein or its mutant was immobilized onto NTA reactive biosensors, and the captured biosensors were individually dipped into the wells containing various concentrations of suramin (25, 50, 100, 200, and 400 μM). The association at each suramin concentration was detected for 900 s, while the dissociation was monitored for 1800 s. The sensors loading hRKIP without suramin were used as controls to correct baseline drifts. The wells containing various concentrations of suramin without loading protein served as references. The association and dissociation responses were corrected and processed using Octet Data Analysis Software (Version 7.0, ForteBio, Inc, San Francisco, CA, USA). The interferometry data were fitted using the 1:1 Langmuir binding model.

For series [4], the target named is T2, hRKIP P74L mutant (Homo sapiens, UniProt P30086, P74L).
T2 construct: made in house; host or cells: E. coli
T2 sequence (P30086 1-187 P74L): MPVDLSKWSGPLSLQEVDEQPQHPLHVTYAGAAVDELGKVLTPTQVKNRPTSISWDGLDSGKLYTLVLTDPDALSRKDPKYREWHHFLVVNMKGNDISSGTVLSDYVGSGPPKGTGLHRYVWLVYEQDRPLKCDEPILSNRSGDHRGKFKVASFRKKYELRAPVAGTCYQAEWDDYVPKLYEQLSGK
As to the kind of experiment: BLI assay of suramin binding to hRKIP mutant P74L. The protocol: as §3, §4

Series [5] deals with T3, hRKIP K113A mutant (Homo sapiens, UniProt P30086, K113A).
T3 construct: made in house; host or cells: E. coli
T3 sequence (P30086 1-187 K113A): T2 sequence (P30086 1-187 P74L) with L74P, K113A
Briefly: BLI assay of suramin binding to hRKIP mutant K113A. The protocol: as §3, §4

The test system of series [6] is phosphorylation level of p-ERK in HEK293T cell. As to the kind of experiment: ERK phosphorylation (Western blot) in HEK293T cells. Particulars: 160 μM suramin. The class given is cell-based, human. The protocol:
as §1, §2
On the technique in general: A western blot detects proteins with antibodies after separation by electrophoresis.

Series [7] addresses T4, hRKIP Y181A mutant (Homo sapiens, UniProt P30086, Y181A).
T4 construct: made in house; host or cells: E. coli
T4 sequence (P30086 1-187 Y181A): T2 sequence (P30086 1-187 P74L) with L74P, Y181A
Briefly: BLI assay of suramin binding to hRKIP mutant Y181A. Here is the method:
as §3, §4

Series [8] deals with T5, hRKIP Y81A mutant (Homo sapiens, UniProt P30086, Y81A).
T5 construct: made in house; host or cells: E. coli
T5 sequence (P30086 1-187 Y81A): T2 sequence (P30086 1-187 P74L) with L74P, Y81A
As to the kind of experiment: BLI assay of suramin binding to hRKIP mutant Y81A. Here is the method: as §3, §4

The target of series [9] is T6, hRKIP W173A mutant (Homo sapiens, UniProt P30086, W173A).
T6 construct: made in house; host or cells: E. coli
T6 sequence (P30086 1-187 W173A): T2 sequence (P30086 1-187 P74L) with L74P, W173A
Briefly: BLI assay of suramin binding to hRKIP mutant W173A. Here is the method:
as §3, §4

The target in series [10] is T7, hRKIP S109A mutant (Homo sapiens, UniProt P30086, S109A).
T7 construct: made in house; host or cells: E. coli
T7 sequence (P30086 1-187 S109A): T2 sequence (P30086 1-187 P74L) with L74P, S109A
As to the kind of experiment: BLI assay of suramin binding to hRKIP mutant S109A. The protocol:
as §3, §4

For series [11], the system named is HEK293T cells transfected with hRKIP. Briefly: Viability of HEK293T cells transfected with hRKIP. The class given is cell-based, human. Here is the method:
We further explored the effects of suramin treatment on hRKIP-mediated Ras/Raf1/MEK/ERK signal pathway by detecting the phosphorylation level of ERK, which could only be activated by MEK [37]. Principally, hRKIP binding with Raf1 inhibits the phosphorylation of Raf1, thereby blocking the following ERK phosphorylation and downregulating the MAPK pathway. […] The transfected cells were then treated with 160 μM suramin. The suramin concentration was experimentally determined as the maximal tolerant concentration for cell viability (Figure 4c), which was consistent with that used usually in clinical patients. […] As a result, the free Raf1 kinase was phosphorylated and the Ras/Raf1/MEK/ERK pathway was promoted with an enhanced phosphorylation level of the following ERK kinase.
Figure 4 Effects of suramin treatment on hRKIP-mediated Ras/Raf1/MEK/ERK pathway in HEK293 cells (a,b) Western blot analysis for the effect of suramin treatment on hRKIP-mediated ERK phosphorylation;(c) Effect of suramin treatment on viabilities of HEK293T cells transfected with hRKIP. (d,e) Western blot analysis for the effect of suramin on the ERK phosphorylation of HEK293T cell. * p <0.1; *** p <0.001; **** p <0.0001, n = 3 for each group.

The target of series [12] is T8, hRKIP P112L mutant (Homo sapiens, UniProt P30086, P112L).
T8 construct: made in house; host or cells: E. coli
T8 sequence (P30086 1-187 P112L): T2 sequence (P30086 1-187 P74L) with L74P, P112L
As to the kind of experiment: BLI assay of suramin binding to hRKIP mutant P112L. The protocol: as §3, §4

Series [13] has as its target T1, hRKIP. Also on record: method as in PMID 30137201. The conditions noted are these: PE binding to hRKIP ref 34; cited from earlier work.

T1 sequence (P30086 whole entry): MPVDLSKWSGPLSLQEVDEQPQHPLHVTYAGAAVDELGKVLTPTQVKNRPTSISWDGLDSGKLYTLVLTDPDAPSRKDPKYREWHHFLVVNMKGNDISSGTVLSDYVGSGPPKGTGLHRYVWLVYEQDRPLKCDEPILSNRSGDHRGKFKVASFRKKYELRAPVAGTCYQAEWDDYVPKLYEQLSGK

Usually IC50 stands for the concentration that inhibits the measured activity by half. The term Kd denotes the constant that tells how readily two partners part at equilibrium. Usually koff stands for a measure of how fast the partners let go of each other. One may read the kon as a measure of how fast the partners come together. On to `Cc1ccc(C(=O)Nc2ccc(S(=O)(=O)O)c3cc(S(=O)(=O)O)cc(S(=O)(=O)O)c23)cc1NC(=O)c1cccc(NC(=O)Nc2cccc(C(=O)Nc3cc(C(=O)Nc4ccc(S(=O)(=O)O)c5cc(S(=O)(=O)O)cc(S(=O)(=O)O)c45)ccc3C)c2)c1` [suramin, Suramin], for which the “increase of ERK phosphorylation level” value in series [1] was “around 3 times”. Further, the IC50 in series [2] was 479 µM. Moreover, the kobs in series [3] (BLI, wild-type RKIP) was determined as 0.00368 s⁻¹; in [4] (P74L mutant), 0.000367 s⁻¹; in series [5], 0.00038 s⁻¹; in series [7] (Y181A mutant), 0.000177 s⁻¹; in series [8] (Y81A mutant) it was 0.000291 s⁻¹; in [9], 0.000553 s⁻¹. Further, the kobs in series [10] (S109A mutant) stood at 0.00295 s⁻¹; in [12] (P112L mutant) it was 0.00037 s⁻¹. The dissociation constant Kd is 23.8 µM in series [3] (BLI, wild-type RKIP, 1:1 Langmuir binding model); 37.1 µM in series [4] (P74L mutant); 87.2 µM in series [5]; 711 µM in series [7] (Y181A mutant); 29.7 µM in series [8] (Y81A mutant); 77.3 µM in series [9]. Further, the Kd in series [10] (S109A mutant) came out at 26 µM; in [12] (P112L mutant), 20.4 µM. In addition, the off-rate constant (koff) in series [3] (BLI, wild-type RKIP, read-out: koff) was 0.000207 s⁻¹; in series [3] (BLI, wild-type hRKIP, read-out: dissociation rate (koff)), 0.0002 s⁻¹; in [4] (P74L mutant), 0.000275 s⁻¹; in series [5], 0.000295 s⁻¹; in series [7] (Y181A mutant), 0.000156 s⁻¹; in [8] (Y81A mutant) it was 0.000158 s⁻¹. Moreover, the results for the off-rate constant (koff) in [9], in series [10] (S109A mutant) and in series [12] (P112L mutant) were 0.000241 s⁻¹, 0.00018 s⁻¹ and 0.000166 s⁻¹, respectively. The on-rate constant (kon) in [3] (BLI, wild-type RKIP, read-out: kon) worked out at 8.69 M⁻¹ s⁻¹; in series [4] (P74L mutant), 7.39 M⁻¹ s⁻¹; in [5], 3.38 M⁻¹ s⁻¹; in [7] (Y181A mutant) it was 0.22 M⁻¹ s⁻¹; in series [8] (Y81A mutant), 5.31 M⁻¹ s⁻¹; in series [9], 3.12 M⁻¹ s⁻¹. In addition, the kon in series [10] (S109A mutant) was found to be 6.93 M⁻¹ s⁻¹; in series [12] (P112L mutant), 8.14 M⁻¹ s⁻¹. Moreover, the “higher affinity for binding to hRKIP compared with PE” value in series [3] (ratio of KD values, PE as native substrate) is given as “about 370 fold”. Moreover, the results for the “decrease of affinity of suramin relative to hRKIP” value in series [4] (P74L mutant vs wild type), in series [7] (Y181A mutant vs wild type) and in series [8] (Y81A mutant vs wild type) were “more than 30%”, “more than 75%” and “around 20%”, respectively. Also, in [6], the “enhancement of phosphorylation level of p-ERK” value is “around 48%”. Moreover, in series [10] (S109A mutant vs wild type), the “decrease of binding affinity of suramin relative to hRKIP” value was “around 10%”. Also, the “maximal tolerant concentration for cell viability” value in series [11] is 160 µM. Besides, the “change of affinity of suramin relative to hRKIP” value in series [12] (P112L mutant vs wild type) is “slightly increased affinity”.

Take `NCCOP(=O)(O)O` [PE, oO-phosphorylethanolamine]: the Kd in series [13] is 8810 µM. Besides, in [3] (BLI, wild-type RKIP), the kon worked out at 3.0 M⁻¹ s⁻¹. The “dissociation rate (koff)” value in [3] (BLI, wild-type hRKIP) was 0.0264 s⁻¹.
